Test results published in patent publication US20220184055A1, “CHIAURANIB FOR TREATMENT OF SMALL CELL LUNG CANCER” (SHENZHEN CHIPSCREEN BIOSCIENCES CO., LTD., priority 2019, published 2022).
“Also recorded” adds a separate entry of the source.

Assays:
[1] = test system: advanced solid tumors; test: Phase I clinical trial of chiauranib in patients with advanced solid tumors; type: in vivo, human; details: for objective remission (complete remission CR and partial remission PR): 18 patients, 8 tumor types, oral once daily 10-65 mg dose escalation, RECIST 1.1
Procedure: Test drug: chiauranib capsules, strength: 5 mg, 25 mg, produced by Shenzhen Chipscreen Biosciences, Co., Ltd.
Dosage regimen: The starting dose was 10 mg/day. After the starting dose, according to the modified Fibonacci method, the patients were enrolled in order from low dose to high dose, and the set dose groups were 20 mg, 35 mg, 50 mg, 65 mg . . . dose groups, respectively, until the MTD was determined.
Chiauranib capsules were administered orally, once a day in the morning. Before knowing the analysis data of the effects of food on bioavailability, the drugs were administered on empty stomach.
Number of cases: 18 cases were enrolled.
The prescribed dose of Chiauranib capsules was administered orally on empty stomach once every day, and every 28 days was a treatment cycle; there was no stopping interval during the treatment cycles, and all enrolled patients received the test drug treatment until the disease progressed or intolerable toxicity appeared.
Efficacy evaluation: The clinical benefits of tumor treatment include:
Judgment criteria: The efficacy was evaluated according to the RECIST version 1.1 (2009) standard of solid tumors.
(§1) Safety assessment: physical examination, vital signs, ECOG physical score, blood routine, urine routine, 12-lead ECG, blood biochemistry, electrolytes, coagulation function, myocardial enzymes, troponin, TSH, FT3, FT4, amylase, echocardiography, 24-hour urine protein quantification (if necessary), and adverse events were included.
A total of 18 patients were enrolled in the trial, all of which were included in the FAS, SS, and PPS analysis sets. Among the 18 patients, 7 cases (38.9%) had colorectal cancer, 5 cases (27.8%) had non-small cell lung cancer, and 1 case each for gastric cancer, ovarian cancer, thyroid papillary carcinoma, diffuse large B-cell lymphoma, fibrosarcoma, and poorly differentiated renal carcinoma.

[2] = test system: recurrent and refractory small cell lung cancer; test: Phase Ib clinical trial of chiauranib alone in recurrent and refractory small cell lung cancer; type: in vivo, human; details: 50 mg/day QD oral
Procedure: Test drug: Chiauranib capsules, strength: 5 mg, 25 mg, produced by Shenzhen Chipscreen Biosciences, Co., Ltd.
Dosage regimen: Chiauranib capsules were administered at 50 mg/day, QD (no adjustments to body weight or body surface area), on an empty stomach every morning with water, swallowing whole capsules intact. Continuous administration for 28 days constituted a treatment cycle, and there was no interval between treatment cycles.
Number of cases: 25 cases were enrolled.
The test subjects were administered with 50 mg of Chiauranib capsules orally once a day, every 28 days as a treatment cycle, and there was no stopping interval during the treatment cycles. Throughout the trial period, all subjects continued treatment until any of the following conditions (whichever occurred first) occurred: disease progression, intolerable toxic response, death, withdrawal of informed consent, or loss to follow-up.
Efficacy evaluation: According to the RECIST1.1 standard, evaluation was performed in the baseline period and at the 4th weekend after treatment, and repeated every 8 weeks until the disease progressed. Tumor imaging examinations include CT or MRI of the neck, chest, whole abdomen, and pelvis. Examinations of other parts were carried out when necessary based on clinical indications. The same techniques and methods should be employed for the baseline of the lesion and follow-up assessment and measurement.
as §1, with “ECOG fitness” for “ECOG physical”, “12-lead ECG” for “12-lead ECG,”

[3] = test system: SCLC; details: combined with best supportive treatment; cited from earlier work
[4] = 20 patients with efficacy evaluation

Compound	PR, number of patients ([1]; 8 common tumors, 18 patients evaluated)	objective remission (complete remission CR and partial remission PR) [1]	objective remission (complete remission CR and partial remission PR) ([1]; listed as Chiauranib)	objective response rate (ORR) / PR (%) [2, 4]	patients whose target lesions were reduced by more than 30% from baseline, number [2, 4]	patients whose target lesions were reduced by more than 30% from baseline, percent [2, 4]	best efficacy evaluation PR, number of patients ([2]; 20 patients with efficacy evaluation of 25 enrolled, RECIST 1.1)	overall survival, quality of life and improvement of symptoms versus best supportive treatment alone [3]
COc1ccc2c(Oc3ccc4c(C(=O)Nc5ccccc5N)cccc4c3)ccnc2c1 [chiauranib, N-(2-aminophenyl)-6-(7-methoxyquinoline-4-oxo)-1-naphthylamide]	0	no objective remission was observed; also recorded: no patients with objective remission were observed	no cases with objective remission were observed	20%	5 patients	25%	4 patients	
CC[C@@]1(O)C(=O)OCc2c1cc1n(c2=O)Cc2cc3c(CN(C)C)c(O)ccc3nc2-1 [topotecan]								significantly better
